Broadly, the viability is a read-out of living cells in per cent, often relative to untreated cells.

The first series is described as follows: in vitro. The settings on record: human, hela cells, % viability.
As for `CCC(SC1=NCCS1)C(=O)Nc1ccc(NC(C)=O)cc1` (stereo not drawn) [CBK266199], the viability at 28.5 h, 10 µM was determined as 97.4%.
On the same count and under the same terms, for `CC(CCc1ccccc1)NC(=O)CC1COc2ccccc2O1` (stereo not drawn) [CBK266203] the value was 103%; for `O=C(CSc1nnc(-c2ccncc2)n1-c1ccc(Cl)cc1)Nc1ccccc1-c1ccccc1` [CBK266205], 104%; for `Cn1ccnc1CN1CCN(Cc2nccn2C)CC1` [CBK266206C], 98.7%.
Still for that read-out and setting: for `COc1nnc(-c2ccc(N3CCOCC3)c(NC(=O)COc3cccc(C)c3)c2)c2ccccc12` [CBK266207] the value was 81.9%.
Still for that read-out and setting: in the case of `COc1ccc(C=O)cc1CSc1nc2ccccc2[nH]1` [CBK266209] it was 94.7%; in that of `CC(C)C1CC(CCNCc2ccc(N(C)C)cc2)(c2ccccc2)CCO1` (stereo not drawn) [CBK266210], 98.9%; in that of `CC(=O)Nc1c(O)nc(SCC(=O)Nc2ccc(Cl)cc2)[nH]c1=O` [CBK266214], 106%.
For `O=C(O)C(Cc1cc2ccccc2[nH]1)N1C(=O)C2CC=C(Cl)CC2C1=O` (stereo not drawn) [CBK266216], the viability at 28.5 h, 10 µM was found to be 94.2%.
On the same count and under the same terms, for `CC(C)c1ccc(S(=O)(=O)NC(CC(=O)O)c2ccccc2)cc1` (stereo not drawn) [CBK266217] the value was 102%; for `O=C(CSc1nnc(SCc2cccc3ccccc23)s1)c1ccc(F)cc1` [CBK266218], 98.9%; for `CCOc1ccc(-n2c(SC/C=C/c3ccccc3)nnc2-c2cccnc2)cc1` [CBK266222], 106%.
Still for that read-out and setting: for `Cc1cc2nc(SCCNC(=O)c3ccc(Cl)cc3)nc(C)c2cc1C` [CBK266223] the value was 93.3%; for `O=C(COc1ccc2oc3c(c2c1)CCCC3)Nc1ccncc1` [CBK266227], 100%; for `COc1ccc(-c2nn(C)c(=O)c3ccccc23)cc1CNC(=O)c1cc([N+](=O)[O-])ccc1OC` [CBK266229], 116%.
On the same count and under the same terms, for `Clc1ccc(Cn2ncc3c(NCCN4CCOCC4)ncnc32)cc1` [CBK266230] the value was 105%.
`NS(=O)(=O)c1ccc(NC(=O)CN2CCN(c3ccc([N+](=O)[O-])cc3)CC2)cc1` [CBK266232]: the viability at 28.5 h, 10 µM came to 96.8%.
Regarding `Cc1ccc([N+](=O)[O-])cc1S(=O)(=O)NCC(=O)O` [CBK266234], the viability at 28.5 h, 10 µM turned out to be 94.7%.
Still for that read-out and setting: in the case of `COc1ccc(-c2cc(C(F)(F)F)nc(S(=O)(=O)CCC(=O)Nc3ccc(C)cc3)n2)cc1` [CBK266235] it was 105%; in that of `CC1Cc2cc(C(=O)C3=C(O)C(=O)N(Cc4ccco4)C3c3cccnc3)ccc2O1` (stereo not drawn) [CBK266236], 104%.
On to `O=C(CSc1nc(-c2ccco2)cc(C(F)(F)F)n1)Nc1ccc(C(=O)N2CCCCC2)cc1` [CBK266238], for which the viability at 28.5 h, 10 µM is 101%.
For `Cc1ccc(S(=O)(=O)N2CCN(CC(O)COc3ccc4ccccc4c3)CC2)cc1` (stereo not drawn) [CBK266239], the viability at 28.5 h, 10 µM stood at 97.7%.
For `Cc1nnc(S)n1CC(=O)n1c2c(c3ccccc31)CCCC2` [CBK266244], the viability at 28.5 h, 10 µM worked out at 106%.
Same read-out and setting: in the case of `O=C(Nc1ccc(I)cc1C(=O)NCCN1CCOCC1)c1ccccc1Cl` [CBK266245] it was 101%; in that of `Cc1cc(NC(=O)CSc2nc(-c3ccc(F)cc3)cc(C(F)(F)F)n2)n(-c2ccccc2)n1` [CBK266248], 102%; in that of `COc1cc(NC(=S)N2CCN(c3cc(Cl)ccc3C)CC2)cc(OC)c1` [CBK266252], 100%.
Consider `CNC1(c2nnnn2CCOC(=O)Nc2ccc(Cl)cc2)CCCC1` [CBK266253], for which the viability at 28.5 h, 10 µM was 102%.
Same read-out and setting: in the case of `CN1CCN(c2ccc(NC(=S)NC(=O)c3cc(Br)ccc3Cl)cc2)CC1` [CBK266254C] it was 96.2%; in that of `Brc1ccc(-n2c(SC/C=C/c3ccccc3)nnc2-c2ccncc2)cc1` [CBK266257], 105%.
Still for that read-out and setting: for `CC1CCN(Cc2c(O)ccc3c(=O)c(-c4cccc(Cl)c4)c(C(F)(F)F)oc23)CC1` [CBK266258] the value was 103%; for `Cc1ccc(C(=O)N2CCN(S(=O)(=O)c3cccc([N+](=O)[O-])c3)CC2)cc1` [CBK266259], 102%.
The same measure, in the same setting: for `Cc1ccc(S(=O)(=O)NC(C)C(=O)Nc2ccc(C)c(Cl)c2)cc1` (stereo not drawn) [CBK266263] the value was 98%.
For `Cn1c(SCC(=O)N2CCN(c3cccc(Cl)c3)CC2)nnc1-c1cccc([N+](=O)[O-])c1` [CBK266264], the viability at 28.5 h, 10 µM amounted to 97.8%.
Same read-out and setting: in the case of `CN1CCN(C(=O)c2ccccc2N(Cc2ccccc2)S(C)(=O)=O)CC1` [CBK266267] it was 101%.
Same read-out and setting: in the case of `CC(=O)Nc1ccccc1-c1nc2ccccc2nc1OCC(=O)c1ccc(Cl)cc1` [CBK266269] it was 93.6%; in that of `O=C(Nc1cc2nn(-c3ccccc3)nc2cc1Cl)c1ccc(-c2cccc([N+](=O)[O-])c2)o1` [CBK266271], 94%; in that of `Cc1sc(NC(=S)NC(=O)c2ccco2)c(C(N)=O)c1C` [CBK266272], 98.9%.
Same read-out and setting: in the case of `O=C(Nc1cccc(C(F)(F)F)c1)c1ccc(N2CCNCC2)c([N+](=O)[O-])c1` [CBK266274] it was 100%.
With `COc1ccc(Cl)cc1C(=O)O/N=C(\N)Cc1cccc2ccccc12` [CBK266275], the viability at 28.5 h, 10 µM worked out at 98.3%.
In the case of `O=C(CSc1nnc(CCc2ccccc2)n1-c1ccc(Cl)cc1)c1ccccc1` [CBK266277], the viability at 28.5 h, 10 µM came out at 88.9%.
The same measure, in the same setting: in the case of `O=C(Nc1ccccc1-c1nc2ccccc2s1)c1cc(Br)ccc1Cl` [CBK266280] it was 94.9%; in that of `Cc1ccc2oc(C(=O)Nc3sc4c(c3C(=O)NCC3CCCO3)CCC4)c(C)c2c1` (stereo not drawn) [CBK266282], 111%; in that of `Cc1nc(S)nc(O)c1Cc1ccc(C(=O)O)o1` [CBK266284], 104%.
On the same count and under the same terms, in the case of `Cc1nnc(N2C(=O)c3oc4ccccc4c(=O)c3C2c2ccc(OCc3ccccc3)cc2)s1` (stereo not drawn) [CBK266287] it was 94.9%.
On the same count and under the same terms, in the case of `N#C/C(=C\c1ccc(-c2ccc(S(N)(=O)=O)cc2)o1)c1nc2ncc(Br)cc2[nH]1` [CBK266288] it was 97.6%; in that of `CCn1c(SCC(=O)N2c3ccccc3Sc3ccccc32)nnc1C(C)Oc1ccccc1` (stereo not drawn) [CBK266290], 105%; in that of `c1csc(CSc2nnc3sc4ccccc4n23)c1` [CBK266291], 87.9%.
With `N#C/C(=C\c1ccc(N2CCOCC2)cc1)c1nc2ncc(Br)cc2[nH]1` [CBK266294], the viability at 28.5 h, 10 µM worked out at 89.4%.
Regarding `N#C/C(=C\c1cn(-c2ccccc2)nc1-c1cccc(S(=O)(=O)N2CCCC2)c1)c1nc2ccccc2c(=O)[nH]1` [CBK266296], the viability at 28.5 h, 10 µM is 91.9%.
On the same count and under the same terms, in the case of `Cc1cccc(OCC(=O)NC(=S)Nc2ccccc2N2CCCCC2)c1C` [CBK266298] it was 105%; in that of `CC(Oc1ccccc1)c1nnc(SCC(=O)Nc2ccc(Br)c(Cl)c2)n1C` (stereo not drawn) [CBK266299], 113%; in that of `Cc1nnc(SCc2nnnn2-c2ccccc2)nc1O` [CBK266302], 101%.
`COc1nc(NCCc2ccc(OC)c(OC)c2)nc(OC)n1` [CBK266304]: the viability at 28.5 h, 10 µM was 94.4%.
Still for that read-out and setting: for `Cc1cc2oc(C(=O)Nc3nc(-c4ccc(S(=O)(=O)N5CCCC5)cc4)cs3)c(C)c2cc1C` [CBK266309] the value was 89.5%; for `Cc1ccc(S(=O)(=O)N2Cc3ccccc3CC2C(=O)Nc2sc3c(c2C#N)CCCC3)cc1` (stereo not drawn) [CBK266313], 97.9%; for `CC1CCN(S(=O)(=O)c2ccc3c(c2)oc(=O)c2cc(S(=O)(=O)N4CCC(C)CC4)ccc23)CC1` [CBK266314], 100%.
With `COc1cc(C(=O)N(Cc2ccco2)c2ccc(O)cc2)cc(OC)c1OC` [CBK266315], the viability at 28.5 h, 10 µM worked out at 102%.
Still for that read-out and setting: in the case of `COc1cccc(C(=O)Nc2ccc(NC(=O)C3CC=CCC3C(=O)O)cc2)c1` (stereo not drawn) [CBK266316] it was 107%; in that of `Cc1cc(C)nc(NC(=N)NCCc2c[nH]c3ccccc23)n1` [CBK266321], 70.2%.
Regarding `CCOc1ccccc1Cn1c2ccccc2c2nc3ccccc3nc21` [CBK266323], the viability at 28.5 h, 10 µM came out at 101%.
The same measure, in the same setting: in the case of `COC(=O)c1ccccc1NC(=O)CSc1nnc(-c2ccncc2)[nH]1` [CBK266324] it was 96.4%; in that of `O=C(CSc1nnc(-c2cccnc2)o1)c1ccc(Oc2ccccc2)cc1` [CBK266327], 88.1%.
Still for that read-out and setting: in the case of `OCCCNC(c1ccccc1)c1ccc(O)cc1` (stereo not drawn) [CBK266329] it was 97.2%.
Still for that read-out and setting: in the case of `O=C(NCC1CCCO1)c1ccc(NC(=O)C2CC=CCC2C(=O)O)cc1` (stereo not drawn) [CBK266335] it was 95%; in that of `N=c1n(CCN2CCCCC2)c2ccccc2n1CC(O)COc1ccc(Cl)cc1Cl` (stereo not drawn) [CBK266336C], 31%; in that of `COC(=O)c1ccccc1NC(=O)CSc1nnc(-c2ccccc2)[nH]1` [CBK266338], 96.7%.
Take `Cc1[nH]c2ccccc2c1C(=O)CSc1nc2ccccc2o1` [CBK266339]: the viability at 28.5 h, 10 µM amounted to 100%.
On to `O=C(CSc1ncccc1C(=O)O)Nc1ccc(Oc2ccccc2)cc1` [CBK266340], for which the viability at 28.5 h, 10 µM worked out at 106%.
Regarding `CCOc1ccc(S(=O)(=O)N2CCN(S(=O)(=O)c3cccc([N+](=O)[O-])c3)CC2)cc1` [CBK266341], the viability at 28.5 h, 10 µM came out at 95.9%.
For `O=[N+]([O-])c1ccc(NCCNc2nc3ccccc3nc2N2CCOCC2)cc1` [CBK266342], the viability at 28.5 h, 10 µM was found to be 107%.
Still for that read-out and setting: in the case of `COc1ccc2c(c1)c(=O)oc1cc(OCC(=O)N3CCc4ccccc4C3)ccc12` [CBK266346] it was 110%.
The same measure, in the same setting: in the case of `Cc1ccnc(SCC(=O)Nc2sc3c(c2C(=O)Nc2ccccc2)CCCC3)n1` [CBK266348] it was 106%; in that of `CC(=O)Nc1ccc(C(=O)CSc2nnc(-c3ccncc3)o2)cc1` [CBK266349], 105%.

Staying with this series, now noted: human, hela cells, % viability, bulk resorufin, single well.
Turning to `Cc1ccccc1N1C(=O)NC(=O)C(CCc2ccncc2)(Cc2ccc3c(c2)OCO3)C1=O` (stereo not drawn) [CBK266289], the viability at 28.5 h, 10 µM worked out at 92%.
Still for that read-out and setting: for `O=C1NC(=O)C(CCc2ccncc2)(Cc2ccc3c(c2)OCO3)C(=O)N1CCc1ccccc1` (stereo not drawn) [CBK266307] the value was 105%.

Values taken from PMC12040169 (PLOS Biology, 2025).
